# Test results reported in patent publication US20260217682A1, “STILBENE COMPOUND AND PREPARATION METHOD THEREFOR AND USE THEREOF” (THE HONG KONG UNIVERSITY OF SCIENCE AND TECHNOLOGY, priority 2022, published 2026).
# Test system: human HaCaT cells
# Test: Cytotoxicity assay (MTT colorimetric assay)
# Assay type: cell-based
# Conditions: 0.3-100 μM, 48 hours of treatment
# Experimental: HaCaT cells were inoculated at a density of 5.0×10^3 cells/mL in a 96-well culture plate, with 100 μL per well. […] After 48 hours of treatment, 10 μL of MTT solution was added to each well, and the cells were incubated at 37° C. for an additional 4 hours. The culture was then terminated, the supernatant was discarded, and 150 μL of DMSO was added to each well. The plate was shaken for 10 minutes for full dissolution. The absorbance (OD) of each well was measured at 490 nm using an ELISA reader. The wells without drug treatment served as controls, and cell viability was calculated using the formula: Cell viability
compound,measurement,value
Oc1ccc(C=Cc2cc(O)cc(O)c2)cc1 [resveratrol],cytotoxicity (cell viability),neither compound RE-1 nor resveratrol exhibited significant cytotoxicity
